Experimental data: ChEMBL document CHEMBL1201862, “PubChem BioAssay data set” (2004)
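Briefly, cells in 96-well plates were exposed to five compound concentrations for 48 h, and endpoints were estimated by linear interpolation. The concentration for 50% growth inhibition is given as GI50.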 Calls of active or inactive are those of the source. No stated cut-off is given here; in the data, active = GI50 up to about 1.1 µM and inactive = higher.

Columns and labels:
Assay in all cases: DTP human tumour cell line panel, 48 h
NCI-H23 = system: NCI-H23
SK-MEL-5 = system: SK-MEL-5
SF-268 = system: SF-268
UACC-62 = system: UACC-62
OVCAR-5 = system: OVCAR-5
BT-549 = system: BT-549
PC-3 = system: PC-3
SNB-19 = system: SNB-19
MDA-MB-435 = system: MDA-MB-435
SW-620 = system: SW-620
OVCAR-8 = system: OVCAR-8
SK-OV-3 = system: SK-OV-3
MDA-N = system: MDA-N
UACC-257 = system: UACC-257
NCI-H522 = system: NCI-H522
SK-MEL-2 = system: SK-MEL-2
SN12C = system: SN12C
DU-145 = system: DU-145
IGROV-1 = system: IGROV-1
EKVX = system: EKVX
HCT-116 = system: HCT-116
SNB-75 = system: SNB-75
M14 = system: M14
RXF 393 = system: RXF 393
NCI-H226 = system: NCI-H226
HOP-62 = system: HOP-62
A549 = system: A549
MOLT-4 = system: MOLT-4
TK-10 = system: TK-10
A498 = system: A498
MDA-MB-231 = system: MDA-MB-231
SF-295 = system: SF-295
OVCAR-3 = system: OVCAR-3
RPMI-8226 = system: RPMI-8226
NCI-H460 = system: NCI-H460
SF-539 = system: SF-539
MCF7 = system: MCF7
LOX IMVI = system: LOX IMVI
T47D = system: T47D
OVCAR-4 = system: OVCAR-4
CAKI-1 = system: CAKI-1
SK-MEL-28 = system: SK-MEL-28
HOP-92 = system: HOP-92
K562 = system: K562
NCI/ADR-RES = system: NCI/ADR-RES
786-0 = system: 786-0
UO-31 = system: UO-31
HCT-15 = system: HCT-15
HL-60 = system: HL-60
HT-29 = system: HT-29
HCC 2998 = system: HCC 2998
COLO 205 = system: COLO 205
U-251 = system: U-251
ACHN = system: ACHN
Hs-578T = system: Hs-578T
KM12 = system: KM12

What does the source list for `C1CSCCSCCSCCSCCS1`?
GI50 (NCI-H23): > 100 µM (inactive); GI50 (SK-MEL-5): > 100 µM (inactive); GI50 (SF-268): > 100 µM (inactive); GI50 (UACC-62): > 100 µM (inactive); GI50 (OVCAR-5): > 100 µM (inactive); GI50 (BT-549): > 100 µM (inactive); GI50 (PC-3): > 100 µM (inactive); GI50 (SNB-19): > 100 µM (inactive); GI50 (MDA-MB-435): > 100 µM (inactive); GI50 (SW-620): > 100 µM (inactive); GI50 (OVCAR-8): > 100 µM (inactive); GI50 (SK-OV-3): > 100 µM (inactive); GI50 (MDA-N): > 100 µM (inactive); GI50 (UACC-257): > 100 µM (inactive); GI50 (NCI-H522): > 100 µM (inactive); GI50 (SK-MEL-2): > 100 µM (inactive); GI50 (SN12C): > 100 µM (inactive); GI50 (DU-145): > 100 µM (inactive); GI50 (IGROV-1): > 100 µM (inactive); GI50 (EKVX): > 100 µM (inactive); GI50 (HCT-116): > 100 µM (inactive); GI50 (SNB-75): > 100 µM (inactive); GI50 (M14): > 100 µM (inactive); GI50 (RXF 393): > 100 µM (inactive); GI50 (NCI-H226): > 100 µM (inactive); GI50 (HOP-62): > 100 µM (inactive); GI50 (A549): > 100 µM (inactive); GI50 (MOLT-4): > 100 µM (inactive); GI50 (TK-10): > 100 µM (inactive); GI50 (A498): > 100 µM (inactive); GI50 (MDA-MB-231): > 100 µM (inactive); GI50 (SF-295): > 100 µM (inactive); GI50 (OVCAR-3): > 100 µM (inactive); GI50 (RPMI-8226): > 100 µM (inactive); GI50 (NCI-H460): > 100 µM (inactive); GI50 (SF-539): > 100 µM (inactive); GI50 (MCF7): > 100 µM (inactive); GI50 (LOX IMVI): > 100 µM (inactive); GI50 (T47D): > 100 µM (inactive); GI50 (OVCAR-4): > 100 µM (inactive); GI50 (CAKI-1): > 100 µM (inactive); GI50 (SK-MEL-28): > 100 µM (inactive); GI50 (HOP-92): > 100 µM (inactive); GI50 (K562): > 100 µM (inactive); GI50 (NCI/ADR-RES): > 100 µM (inactive); GI50 (786-0): > 100 µM (inactive); GI50 (UO-31): > 100 µM (inactive); GI50 (HCT-15): > 100 µM; GI50 (HL-60): > 100 µM (inactive); GI50 (HT-29): > 100 µM (inactive); GI50 (HCC 2998): > 100 µM (inactive); GI50 (COLO 205): > 100 µM (inactive); GI50 (U-251): > 100 µM (inactive); GI50 (ACHN): > 100 µM (inactive); GI50 (Hs-578T): > 100 µM (inactive); GI50 (KM12): > 100 µM (inactive)
